# Values quoted from earlier work in US20090012010A1, “Amino acid derivatives as calcium channel blockers” (Neuromed Phramaceuticals Ltd., priority 2007, published 2009).
# Test system: T-type calcium channels
smiles,measurement,value
COCC(=O)O[C@]1(CCN(C)CCCc2nc3ccccc3[nH]2)CCc2cc(F)ccc2[C@@H]1C(C)C [Mibefradil],fold selective for T-type over L-type channels,10-30 fold
